Laboratory results taken from patent publication US11535643B2, “Macrolides with modified desosamine sugars and uses thereof” (President and Fellows of Harvard College, priority 2015, dated 2022).
Values after ≈ are worked out from the molar mass of the structure shown.

Legend:
Assay type in all cases: cell-based
K. pneumoniae = test: Broth dilution MIC determination (CLSI) against K. pneumoniae strains
Description: (§1) Minimum inhibitory concentrations (MICs) for macrolides described herein have been determined for unique strains of S. aureus, S. pneumoniae, S. pyogenes, E. faecalis, E. coli, A. baumannii, K. pneumoniae, P. aeruginosa, and H. influenzae, including several multidrug-resistant strains, with a special focus on macrolide resistant mechanisms. Azithromycin and solithromycin were included as control compounds. CLSI standard procedures for broth dilution MIC determination were used.

S. aureus = test: Broth dilution MIC determination (CLSI) against S. aureus strains
Description: as §1, with “used. Data for exemplary compounds described herein is shown in Tables M1-M7 and in Tables N1-N4.” for “used.”

P. aeruginosa = test: Broth dilution MIC determination (CLSI) against P. aeruginosa strains
Description: as §1, with “used. Data for exemplary compounds described herein is shown in Tables M1-M7 and in Tables N1-N4.” for “used.”

A. baumannii = test: Broth dilution MIC determination (CLSI) against A. baumannii strains
Description: as §1, with “used. Data for exemplary compounds described herein is shown in Tables M1-M7 and in Tables N1-N4.” for “used.”

E. coli = test: Broth dilution MIC determination (CLSI) against E. coli strains
Description: as §1, with “used. Data for exemplary compounds described herein is shown in Tables M1-M7 and in Tables N1-N4.” for “used.”

[1] = K. pneumoniae ATCC 10031, strain MP-14 (Table N4)
[2] = K. pneumoniae Clinical, strain MP-548 (Table N4)
[3] = K. pneumoniae Clinical-MDR, strain MP-546 (Table N4)
[4] = S. aureus ATCC29213, strain MP-12 (Table N4)
[5] = S. aureus BAA 977 iErm, strain MP-17 (Table N4)
[6] = S. aureus Clinical-cErm, strain MP-513 (Table N4)
[7] = S. aureus USA300-msr(a), strain MP-549 (Table N4)
[8] = P. aeruginosa ATCC27853, strain MP-3 (Table N4)
[9] = P. aeruginosa PAO1, strain MP-7 (Table N4)
[10] = P. aeruginosa mex-oprM-deletion, strain MP-8 (Table N4)
[11] = A. baumannii ATCC 19606, strain MP-15 (Table N4)
[12] = A. baumannii Clinical-AZT low, strain MP-577 (Table N4)
[13] = A. baumannii Clinical-MDR, strain MP-576 (Table N4)
[14] = E. coli ATCC25922, strain MP-4 (Table N4)
[15] = E. coli Clinical, strain MP-541 (Table N4)
[16] = E. coli clinical-cErmB, strain MP-532 (Table N4)
[17] = E. coli tolC, strain MP-9 (Table N4)

CCC1OC(=O)C(C)C(=O)C(C)C(OC2OC(C)CC(Nc3cnccn3)C2O)C(C)(OC)CC(C)CNC(C)C2N(CCCCn3cc(-c4cccc(N)c4)nn3)C(=O)OC12C (stereo not shown) [FSM-120410]
MIC (K. pneumoniae; [1]): >64 mg/L | MIC (K. pneumoniae; [2]): >64 mg/L | MIC (K. pneumoniae; [3]): >64 mg/L | MIC (S. aureus; [4]): >64 mg/L | MIC (S. aureus; [5]): >64 mg/L | MIC (S. aureus; [6]): >64 mg/L | MIC (S. aureus; [7]): >64 mg/L | MIC (P. aeruginosa; [8]): >64 mg/L | MIC (P. aeruginosa; [9]): >64 mg/L | MIC (P. aeruginosa; [10]): >64 mg/L | MIC (A. baumannii; [11]): >64 mg/L | MIC (A. baumannii; [12]): >64 mg/L | MIC (A. baumannii; [13]): >64 mg/L | MIC (E. coli; [14]): >64 mg/L | MIC (E. coli; [15]): >64 mg/L | MIC (E. coli; [16]): >64 mg/L | MIC (E. coli; [17]): >64 mg/L

CCC1OC(=O)C(C)C(=O)C(C)C(OC2OC(C)CC(N(C)CCO)C2O)C(C)(OC)CC(C)CN(C)C(C)C2N(CCCCn3cc(-c4cccc(N)c4)nn3)C(=O)OC12C (stereo not shown) [FSM-120419]
MIC (K. pneumoniae; [1]): 16 mg/L (≈ 18.3 µM) | MIC (K. pneumoniae; [2]): >64 mg/L | MIC (K. pneumoniae; [3]): >64 mg/L | MIC (S. aureus; [4]): 32 mg/L (≈ 36.7 µM) | MIC (S. aureus; [5]): 32 mg/L (≈ 36.7 µM) | MIC (S. aureus; [6]): >64 mg/L | MIC (S. aureus; [7]): 32 mg/L (≈ 36.7 µM) | MIC (P. aeruginosa; [8]): >64 mg/L | MIC (P. aeruginosa; [9]): >64 mg/L | MIC (P. aeruginosa; [10]): >64 mg/L | MIC (A. baumannii; [11]): >64 mg/L | MIC (A. baumannii; [12]): >64 mg/L | MIC (A. baumannii; [13]): >64 mg/L | MIC (E. coli; [14]): >64 mg/L | MIC (E. coli; [15]): >64 mg/L | MIC (E. coli; [16]): >64 mg/L | MIC (E. coli; [17]): 4 mg/L (≈ 4.59 µM)

CCC1OC(=O)C(C)C(=O)C(C)C(OC2OC(C)CC(N3CCC(O)C3)C2O)C(C)(OC)CC(C)CNC(C)C2N(CCCCn3cc(-c4cccc(N)c4)nn3)C(=O)OC12C (stereo not shown) [FSM-120417]
MIC (K. pneumoniae; [1]): 4 mg/L (≈ 4.6 µM) | MIC (K. pneumoniae; [2]): 64 mg/L (≈ 73.6 µM) | MIC (K. pneumoniae; [3]): >64 mg/L | MIC (S. aureus; [4]): 32 mg/L (≈ 36.8 µM) | MIC (S. aureus; [5]): 64 mg/L (≈ 73.6 µM) | MIC (S. aureus; [6]): >64 mg/L | MIC (S. aureus; [7]): 64 mg/L (≈ 73.6 µM) | MIC (P. aeruginosa; [8]): >64 mg/L | MIC (P. aeruginosa; [9]): >64 mg/L | MIC (P. aeruginosa; [10]): 32 mg/L (≈ 36.8 µM) | MIC (A. baumannii; [11]): 32 mg/L (≈ 36.8 µM) | MIC (A. baumannii; [12]): 32 mg/L (≈ 36.8 µM) | MIC (A. baumannii; [13]): >64 mg/L | MIC (E. coli; [14]): 16 mg/L (≈ 18.4 µM) | MIC (E. coli; [15]): 16 mg/L (≈ 18.4 µM) | MIC (E. coli; [16]): >64 mg/L | MIC (E. coli; [17]): 2 mg/L (≈ 2.3 µM)

CCC1OC(=O)C(C)C(=O)C(C)C(OC2OC(C)CC(N3CCC(O)C3)C2O)C(C)(OC)CC(C)CNC(C)C2N(CCCCn3cc(-c4cccc(N)c4)nn3)C(=O)OC12C (stereo not shown) [FSM-120416]
MIC (K. pneumoniae; [1]): 32 mg/L (≈ 36.8 µM) | MIC (K. pneumoniae; [2]): >64 mg/L | MIC (K. pneumoniae; [3]): >64 mg/L | MIC (S. aureus; [4]): >64 mg/L | MIC (S. aureus; [5]): >64 mg/L | MIC (S. aureus; [6]): >64 mg/L | MIC (S. aureus; [7]): >64 mg/L | MIC (P. aeruginosa; [8]): >64 mg/L | MIC (P. aeruginosa; [9]): >64 mg/L | MIC (P. aeruginosa; [10]): >64 mg/L | MIC (A. baumannii; [11]): >64 mg/L | MIC (A. baumannii; [12]): >64 mg/L | MIC (A. baumannii; [13]): >64 mg/L | MIC (E. coli; [14]): >64 mg/L | MIC (E. coli; [15]): >64 mg/L | MIC (E. coli; [16]): >64 mg/L | MIC (E. coli; [17]): 8 mg/L (≈ 9.19 µM)

CCC1OC(=O)C(C)C(=O)C(C)C(OC2OC(C)CC(N(C)CCCS(C)(=O)=O)C2O)C(C)(OC)CC(C)CNC(C)C2N(CCCCn3cc(-c4cccc(N)c4)nn3)C(=O)OC12C (stereo not shown) [FSM-120420]
MIC (K. pneumoniae; [1]): 16 mg/L (≈ 17.1 µM) | MIC (K. pneumoniae; [2]): >64 mg/L | MIC (K. pneumoniae; [3]): >64 mg/L | MIC (S. aureus; [4]): 32 mg/L (≈ 34.3 µM) | MIC (S. aureus; [5]): 32 mg/L (≈ 34.3 µM) | MIC (S. aureus; [6]): >64 mg/L | MIC (S. aureus; [7]): 64 mg/L (≈ 68.5 µM) | MIC (P. aeruginosa; [8]): >64 mg/L | MIC (P. aeruginosa; [9]): >64 mg/L | MIC (P. aeruginosa; [10]): 64 mg/L (≈ 68.5 µM) | MIC (A. baumannii; [11]): 32 mg/L (≈ 34.3 µM) | MIC (A. baumannii; [12]): 64 mg/L (≈ 68.5 µM) | MIC (A. baumannii; [13]): >64 mg/L | MIC (E. coli; [14]): 64 mg/L (≈ 68.5 µM) | MIC (E. coli; [15]): 32 mg/L (≈ 34.3 µM) | MIC (E. coli; [16]): >64 mg/L | MIC (E. coli; [17]): 2 mg/L (≈ 2.14 µM)
